Measured values reported in ChEMBL document CHEMBL1201862, “PubChem BioAssay data set” (2004).
The source made the active and inactive calls.

Experiments:
[1] = inhibitors of firefly luciferase expression or activity, dose response, H4 neuroglioma cells, luminescence (AID 1990); type: functional, cell-based
[2] = Luminescence Cell-Based Dose Response HTS to Identify Inhibitors of 5'UTR Stem-Loop Driven Prion Protein mRNA Translation in H4 Neuroglioblastoma Cells. [Related pubchem assays: 1827 (Project Summary), 1813 (Primary HTS)]; type: functional
[3] = inhibitors of SNCA 5'UTR-driven reporter translation, confirmation, H4 neuroglioma cells, luminescence (AID 1988); type: functional, cell-based
[4] = cytotoxicity in HEK-293T cells, dose response, cytotoxicity control for BCR NF-kB inhibitor project, luminescence, B-cell screen hits (AID 489021); type: functional, cell-based;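 also: HEK-293T cells carrying an NF-kB luciferase reporter; cells exposed to compound for about 14 hours before viability readout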
[5] = system: Streptococcus sp. 'group A'; test: growth inhibition of control SK(-) GAS strain, dose response, counter-screen for streptokinase expression inhibitor project, luminescence, kanamycin, BacTiterGlo, confirmation (AID 1900); type: functional, organism-based
Streptococcus = test: Group A Streptococcus viability loss, dose response, counter-screen for streptokinase expression inhibitor project, luminescence, BacTiterGlo (AID 1915); type: functional, organism-based;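 also: potency for reduction of bacterial viability or growth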
[6] = Luminescence Cell-Based Dose Retest to Confirm Inhibitors of Cancer Stem Cells. [Related pubchem assays (depositor defined):AID2717, AID2721]; type: functional, Homo sapiens; conditions: Homo sapiens
[7] = molecular target: 26S proteasome non-ATPase regulatory subunit 14 (Homo sapiens, UniProt O00487); test: inhibition of proteasome subunit RPN11 – biochemical, fluorescence polarization, uHTS hits, confirmation (AID 602368); type: functional
Chain of 26S proteasome non-ATPase regulatory subunit 14 (O00487 whole entry): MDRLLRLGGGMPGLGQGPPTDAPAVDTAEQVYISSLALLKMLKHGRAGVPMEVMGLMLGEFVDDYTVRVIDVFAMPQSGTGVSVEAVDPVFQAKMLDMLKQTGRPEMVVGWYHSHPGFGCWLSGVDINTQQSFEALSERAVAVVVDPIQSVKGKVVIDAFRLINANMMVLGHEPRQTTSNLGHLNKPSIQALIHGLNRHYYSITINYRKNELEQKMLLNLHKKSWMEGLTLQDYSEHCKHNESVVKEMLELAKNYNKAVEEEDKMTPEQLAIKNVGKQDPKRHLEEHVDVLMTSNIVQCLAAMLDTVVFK

[8] = molecular target: 72 kDa type IV collagenase (Homo sapiens, UniProt P08253); test: Dose Response validation of uHTS RPN11 inhibitor hits using a MMP-2 Fluorescence assay.; type: functional
Chain of 72 kDa type IV collagenase (P08253 whole entry): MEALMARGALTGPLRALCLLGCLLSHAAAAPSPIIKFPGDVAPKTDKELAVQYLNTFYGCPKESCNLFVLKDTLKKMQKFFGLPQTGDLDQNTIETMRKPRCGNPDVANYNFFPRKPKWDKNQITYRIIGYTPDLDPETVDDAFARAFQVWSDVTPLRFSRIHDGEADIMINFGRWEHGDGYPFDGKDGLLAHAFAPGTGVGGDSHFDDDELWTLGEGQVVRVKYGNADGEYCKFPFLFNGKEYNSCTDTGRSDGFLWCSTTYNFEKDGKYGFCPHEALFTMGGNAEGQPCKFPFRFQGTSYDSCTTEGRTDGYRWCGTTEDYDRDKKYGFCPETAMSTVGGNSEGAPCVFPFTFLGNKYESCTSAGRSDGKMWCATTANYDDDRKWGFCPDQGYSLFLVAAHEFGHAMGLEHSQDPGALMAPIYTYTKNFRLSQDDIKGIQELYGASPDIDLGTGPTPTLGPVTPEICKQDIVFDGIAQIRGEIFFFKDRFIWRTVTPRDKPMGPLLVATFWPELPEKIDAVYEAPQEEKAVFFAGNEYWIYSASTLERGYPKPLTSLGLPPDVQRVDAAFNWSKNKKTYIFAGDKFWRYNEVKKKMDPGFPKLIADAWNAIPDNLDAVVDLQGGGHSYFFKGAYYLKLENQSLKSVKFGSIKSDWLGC

Prothrombin = Prothrombin (Bos taurus, UniProt P00735); test: thrombin inhibition, dose response, biochemical, fluorescence polarization, uHTS hits (AID 602369); type: functional
[9] = molecular target: DNA dC->dU-editing enzyme APOBEC-3G (Homo sapiens, UniProt Q9HC16); test: Dose Response confirmation of small molecule APOBEC3G DNA Deaminase Inhibitors via a fluorescence-based single-stranded DNA deaminase assay. [Related pubchem assays (depositor defined):AID493012, AID493028]; type: functional
Chain of DNA dC->dU-editing enzyme APOBEC-3G (Q9HC16 whole entry): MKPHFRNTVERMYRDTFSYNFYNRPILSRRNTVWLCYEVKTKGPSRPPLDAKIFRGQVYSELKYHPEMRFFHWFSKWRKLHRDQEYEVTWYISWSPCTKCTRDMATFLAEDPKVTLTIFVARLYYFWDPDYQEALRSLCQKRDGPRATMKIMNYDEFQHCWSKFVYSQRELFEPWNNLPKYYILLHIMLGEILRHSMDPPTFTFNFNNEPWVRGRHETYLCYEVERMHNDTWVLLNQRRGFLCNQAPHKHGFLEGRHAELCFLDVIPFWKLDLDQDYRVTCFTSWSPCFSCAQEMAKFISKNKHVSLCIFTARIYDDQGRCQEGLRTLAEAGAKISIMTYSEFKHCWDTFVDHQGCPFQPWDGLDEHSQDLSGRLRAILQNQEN

[10] = molecular target: Luciferin 4-monooxygenase (Photinus pyralis, UniProt P08659); test: firefly luciferase enzyme inhibitors, dose response, biochemical, luminescence (AID 1891)
Chain of Luciferin 4-monooxygenase (P08659 whole entry): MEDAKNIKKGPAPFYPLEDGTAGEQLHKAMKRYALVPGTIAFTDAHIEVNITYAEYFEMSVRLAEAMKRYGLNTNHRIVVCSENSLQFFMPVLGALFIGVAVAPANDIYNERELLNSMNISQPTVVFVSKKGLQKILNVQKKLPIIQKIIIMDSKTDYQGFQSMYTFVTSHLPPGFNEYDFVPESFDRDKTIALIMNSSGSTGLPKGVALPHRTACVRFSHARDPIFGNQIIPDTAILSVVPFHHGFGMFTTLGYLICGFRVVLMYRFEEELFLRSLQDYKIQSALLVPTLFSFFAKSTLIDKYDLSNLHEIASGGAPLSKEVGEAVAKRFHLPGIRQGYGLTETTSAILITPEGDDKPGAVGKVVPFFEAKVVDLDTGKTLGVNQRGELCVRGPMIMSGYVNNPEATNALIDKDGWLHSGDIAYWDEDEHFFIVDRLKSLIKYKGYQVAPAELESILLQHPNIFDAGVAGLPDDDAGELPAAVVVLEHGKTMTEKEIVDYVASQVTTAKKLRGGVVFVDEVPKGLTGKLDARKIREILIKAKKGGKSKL

[11] = Luminescence Cell-Based Dose Confirmation HTS to Identify Inhibitors of Platelet Dense Granule Release. [Related pubchem assays: 1663 (Primary HTS), 1678 (Summary of Project)]; type: functional
Cytochrome P450 1A2 = molecular target: T1, Cytochrome P450 1A2 (Homo sapiens, UniProt P05177);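 also: PubChem cytochrome P450 panel assay, CYP1A2 panel member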
T1 sequence (P05177 whole entry): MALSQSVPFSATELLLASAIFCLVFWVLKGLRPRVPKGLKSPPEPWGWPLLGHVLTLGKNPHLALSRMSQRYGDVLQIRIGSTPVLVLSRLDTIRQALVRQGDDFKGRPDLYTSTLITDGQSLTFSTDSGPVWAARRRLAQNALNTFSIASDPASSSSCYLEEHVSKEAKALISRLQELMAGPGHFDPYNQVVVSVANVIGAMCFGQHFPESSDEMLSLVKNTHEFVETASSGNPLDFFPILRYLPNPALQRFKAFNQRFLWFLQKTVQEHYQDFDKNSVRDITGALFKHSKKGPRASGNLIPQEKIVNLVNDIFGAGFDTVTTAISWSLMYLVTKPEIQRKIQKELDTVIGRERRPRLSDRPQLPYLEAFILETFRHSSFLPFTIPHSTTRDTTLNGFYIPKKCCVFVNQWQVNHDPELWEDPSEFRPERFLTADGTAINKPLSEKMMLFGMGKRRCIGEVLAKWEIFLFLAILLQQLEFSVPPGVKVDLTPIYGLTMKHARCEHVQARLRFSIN

Cytochrome P450 2D6 = Cytochrome P450 2D6 (Homo sapiens, UniProt P10635);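 also: CYP2D6 member of a cytochrome P450 panel assay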
Chain of Cytochrome P450 2D6 (P10635 whole entry): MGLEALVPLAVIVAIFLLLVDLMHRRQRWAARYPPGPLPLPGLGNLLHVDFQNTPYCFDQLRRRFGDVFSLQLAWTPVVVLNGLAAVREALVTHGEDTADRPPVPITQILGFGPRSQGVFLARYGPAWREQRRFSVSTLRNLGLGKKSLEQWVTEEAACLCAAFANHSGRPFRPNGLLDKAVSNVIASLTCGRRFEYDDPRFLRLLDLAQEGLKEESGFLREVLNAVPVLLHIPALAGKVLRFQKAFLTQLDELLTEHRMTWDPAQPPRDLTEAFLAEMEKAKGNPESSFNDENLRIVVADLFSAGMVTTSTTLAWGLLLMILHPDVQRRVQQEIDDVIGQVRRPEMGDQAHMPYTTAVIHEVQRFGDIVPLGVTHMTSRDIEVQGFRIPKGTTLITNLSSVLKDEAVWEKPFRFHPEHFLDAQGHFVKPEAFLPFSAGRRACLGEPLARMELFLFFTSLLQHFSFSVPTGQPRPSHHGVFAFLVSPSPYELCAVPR

Question: For CCNc1nc(C)c2cc(Br)c(=O)n(CC)c2n1, which EC50 [1] is on record?
Answer: 15.9 µM (active)

Question: And the EC50 [2]?
Answer: 7.96 µM (active)

Question: What about the EC50 [3] of the same molecule?
Answer: 11.5 µM (active)

Question: What about the IC50 [4] of the same molecule?
Answer: > 80 µM (inactive)

Question: Which IC50 [4] does the source give for COC(=O)[C@@]12OC[C@]34[C@H]([C@@H](O)[C@@H]1O)[C@@]1(C)C(=O)C(O[C@@H]5OC(CO)[C@@H](O)[C@@H](O)[C@@H]5O)=C[C@@H](C)[C@@H]1C[C@H]3OC(=O)[C@H](OC(=O)/C=C(\C)C(C)(C)OC(C)=O)[C@@H]24 (stereo partly specified) here?
Answer: > 80 µM (inactive)

Question: For O=C(CSc1nc(O)c2c(C(F)(F)F)cc(-c3cccs3)nc2n1)Nc1ccc(F)c(F)c1, which EC50 [5] is on record?
Answer: 1.12 µM (active)

Question: And the EC50 (Streptococcus)?
Answer: 2.58 µM (active)

Question: What about the AC50 [6] of the same molecule?
Answer: 1.27 µM (active)

Question: And the IC50 [7]?
Answer: 42.7 µM (active)

Question: What about the IC50 [8] of the same molecule?
Answer: > 100 µM (inactive)

Question: And the IC50 (Prothrombin)?
Answer: 79.4 µM (active)

Question: For CCOC(=O)c1sc(N)c(C(=O)Nc2ccccc2OC)c1C, which IC50 [9] is on record?
Answer: 68.9 µM (active)

Question: What does the source list for COc1ccc(C(N)=O)cc1NC(=O)c1cccc(F)c1?
Answer: EC50 [10]: > 112 µM (not active); EC50 [11]: > 112 µM (not active); AC50 (Cytochrome P450 1A2): 5.01 µM (inconclusive); AC50 (Cytochrome P450 2D6): inconclusive

Question: For CCOC(=O)C(/C=N/c1cc(C)ccc1C)=C(\O)OCC, which IC50 [4] is on record?
Answer: > 80 µM (inactive)

Question: Which results are given for Cc1[nH]c2ccccc2c1/C=C/C(=O)c1ccncc1?
Answer: IC50 [7]: 38.8 µM (active); IC50 [8]: > 100 µM (inactive); IC50 (Prothrombin): 48.4 µM (active)

Question: Which IC50 [4] does the source give for O=S(=O)(c1cnc(Cl)c(Cl)c1)N1CCCc2ccccc21 here?
Answer: > 80 µM (inactive)
